Experiments:
BRD2 BD1 = molecular target: T1, BRD2 BD1 (Homo sapiens, UniProt P25440); experiment: Binding assay, BRD2 BD1 to acetylated histone H4 Peptide-Biotin (EPIgeneous Binding Domain Kit A); conditions: test compound at 300 nmol/L; read-out: Binding inhibition percentage BRD2 BD1
T1 construct: BRD2 BD1, BRD3 BD1 and BRD4 BD1 (Cisbio); purchased Cisbio
Description: (§1) BRD2 BD1, BRD3 BD1 and BRD4 BD1 (Cisbio), [Lys(Ac)5/8/12/16]-Histone H4(1-25)-GSGSK (Biotin) (hereinafter referred to as “Peptide-Biotin,” AnaSpec), and EPIgeneous (registered trademark) Binding Domain Kit A (Cisbio) were used to carry out an assay. That is to say, per well, 4 μL of BRD2 BD1, BRD3 BD1 or BRD4 BD1, which was adjusted to 20 nmol/L with Diluent buffer; 4 μL of 25 nmol/L Peptide-Biotin; 2 μL of Dilution buffer (Cisbio) containing dimethyl sulfoxide (DMSO) or a test compound that was serially diluted with DMSO; 5 μL of 2.5 nmol/L Streptavidin-d2; and 5 μL of Anti-Gst-Eu+^3+ Cryptate Conjugate 50-fold diluted with Detection Buffer were added to a 384-well plate (Corning).
(§2) The obtained mixture was left at rest at room temperature for 20 hours, and thereafter, the fluoresence intensity at 665 nm and 620 nm was measured using Envision plate reader (Perkin Elmer), so that the inhibition percentage (%) of the test compound against the binding of a bromodomain in a bromodomain-containing protein to Peptide-Biotin was calculated. Binding inhibition percentage (%)=[1−{(fluorescence intensity at 665 nm of test compound−added well)/(fluorescence intensity at 620 nm of test compound−added well)}/{(fluorescence intensity at 665 nm of DMSO−added well)/(fluorescence intensity at 665 nm of DMSO−added well)}]×100
(§3) Moreover, using Graphpad prism 5 (GraphPad software), 50% inhibitory concentration [IC50 (nmol/L)] was calculated according to a non-linear regression analysis (log (inhibitor) vs. response—Variable slope (four parameters)).
(§4) Regarding other test compounds, each compound was diluted with DMSO to a final concentration of 300 nmol/L by the same method as that described above, and the binding inhibition percentage (%) of each test compound at 300 nmol/L against the binding of bromodomain in a bromodomain-containing protein to acetylated histone was calculated.

BRD2 BD2 = molecular target: T2, BRD2 BD2 (Homo sapiens, UniProt P25440); experiment: Binding assay, BRD2 BD2 to acetylated histone H4 Peptide-Biotin (EPIgeneous Binding Domain Kit B); conditions: test compound at 300 nmol/L; read-out: Binding inhibition percentage BRD2 BD2
T2 construct: BRD2 BD2, BRD3 BD2 and BRD4 BD2 (Cisbio); purchased Cisbio
Description: (§5) Moreover, BRD2 BD2, BRD3 BD2 and BRD4 BD2 (Cisbio), Peptide-Biotin (AnaSpec), and EPIgeneous (registered trademark) Binding Domain Kit B (Cisbio) were used to carry out an assay. That is, per well, 4 μL of BRD2 BD2, BRD3 BD2 or BRD4 BD2, which was adjusted to 20 nmol/L with Diluent buffer; 4 μL of 250 nmol/L Peptide-Biotin; 2 μL of Dilution buffer (Cisbio) containing DMSO or a test compound that was serially diluted with DMSO; 5 μL of 25 nmol/L Streptavidin-XL665; 5 μL of Anti-Gst-Eu+^3+ Cryptate Conjugate 50-fold diluted with Detection Buffer were added to a 384-well plate (Corning).
as §2, §3, §4

BRD3 BD1 = molecular target: T3, BRD3 BD1 (Homo sapiens, UniProt Q15059); experiment: Binding assay, BRD3 BD1 to acetylated histone H4 Peptide-Biotin (EPIgeneous Binding Domain Kit A); conditions: test compound at 300 nmol/L; read-out: Binding inhibition percentage BRD3 BD1
T3 construct: BRD2 BD1, BRD3 BD1 and BRD4 BD1 (Cisbio); purchased Cisbio
Description: as §1, §2, §3, §4

BRD3 BD2 = molecular target: T4, BRD3 BD2 (Homo sapiens, UniProt Q15059); experiment: Binding assay, BRD3 BD2 to acetylated histone H4 Peptide-Biotin (EPIgeneous Binding Domain Kit B); conditions: test compound at 300 nmol/L; read-out: Binding inhibition percentage BRD3 BD2
T4 construct: BRD2 BD2, BRD3 BD2 and BRD4 BD2 (Cisbio); purchased Cisbio
Description: as §5, §2, §3, §4

BRD4 BD1 = molecular target: T5, BRD4 BD1 (Homo sapiens, UniProt O60885); experiment: Binding assay, BRD4 BD1 to acetylated histone H4 Peptide-Biotin (EPIgeneous Binding Domain Kit A); conditions: test compound at 300 nmol/L; read-out: Binding inhibition percentage BRD4 BD1
T5 construct: BRD2 BD1, BRD3 BD1 and BRD4 BD1 (Cisbio); purchased Cisbio
Description: as §1, §2, §3, §4

BRD4 BD2 = molecular target: T6, BRD4 BD2 (Homo sapiens, UniProt O60885); experiment: Binding assay, BRD4 BD2 to acetylated histone H4 Peptide-Biotin (EPIgeneous Binding Domain Kit B); conditions: test compound at 300 nmol/L; read-out: Binding inhibition percentage BRD4 BD2
T6 construct: BRD2 BD2, BRD3 BD2 and BRD4 BD2 (Cisbio); purchased Cisbio
Description: as §5, §2, §3, §4

T2 sequence (P25440 344-453 limits assumed): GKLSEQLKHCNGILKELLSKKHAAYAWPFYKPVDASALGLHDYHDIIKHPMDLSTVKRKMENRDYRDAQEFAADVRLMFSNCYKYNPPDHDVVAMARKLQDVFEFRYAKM
T4 sequence (Q15059 306-415 limits assumed): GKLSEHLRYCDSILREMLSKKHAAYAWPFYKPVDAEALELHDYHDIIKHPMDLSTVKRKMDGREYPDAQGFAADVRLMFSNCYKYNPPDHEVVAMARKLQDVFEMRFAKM
T1 sequence (P25440 74-180 limits assumed): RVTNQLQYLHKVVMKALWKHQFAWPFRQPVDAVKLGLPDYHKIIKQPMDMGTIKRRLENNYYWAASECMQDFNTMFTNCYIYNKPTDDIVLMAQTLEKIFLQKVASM
T3 sequence (Q15059 34-140 limits assumed): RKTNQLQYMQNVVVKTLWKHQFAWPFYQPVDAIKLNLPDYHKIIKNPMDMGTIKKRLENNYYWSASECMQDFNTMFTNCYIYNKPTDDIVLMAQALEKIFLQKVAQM

Row | Structure (SMILES) | inhibition at 0.3 µM (BRD2 BD1) [%] | inhibition at 0.3 µM (BRD2 BD2) [%] | inhibition at 0.3 µM (BRD3 BD1) [%] | inhibition at 0.3 µM (BRD3 BD2) [%] | inhibition at 0.3 µM (BRD4 BD1) [%] | inhibition at 0.3 µM (BRD4 BD2) [%]
1 | CCn1cc(-c2ccccc2)n(-c2ccc3c(c2)c(N2CCOCC2)cc(=O)n3CC)c1=O [Example 266, 1-ethyl-6-(3-ethyl-2-oxo-5-phenyl-2,3-dihydro-1H-imidazol-1-yl)-4-(morpholin-4-yl)quinolin-2(1H)-one] | 91 | 90 | 94 | 91 | 93 | 88
2 | CCC1C(=O)N(c2ccccc2)N(c2ccc3c(c2)c(C2CC2)cc(=O)n3CC)C1=O (stereo not drawn) [Example 281, 1-(4-cyclopropyl-1-ethyl-2-oxo-1,2-dihydroquinolin-6-yl)-4-ethyl-2-phenylpyrazolidine-3,5-dione] | 87 | 89 | 92 | 91 | 94 | 88
3 | CCn1c(=O)cc(N2CCOCC2)c2cc(-n3c(-c4ccccc4)c[nH]c3=O)ccc21 [Example 3, 1-ethyl-4-(morpholin-4-yl)-6-(2-oxo-5-phenyl-2,3-dihydro-1H-imidazol-1-yl)quinolin-2(1H)-one] | 91 | 89 | 94 | 91 | 94 | 89
4 | CCn1c(=O)cc(N2CCOCC2)c2cc(-c3nccn3-c3ccccc3)ccc21 [Example 257, 1-ethyl-4-(morpholin-4-yl)-6-(1-phenyl-1H-imidazol-2-yl)quinolin-2(1H)-one] | 84 | 85 | 92 | 91 | 95 | 88
5 | CCn1c(=O)cc(C2CCN(CCO)CC2)c2cc(C(=O)N(C)c3ccc4c(c3)CCCCC4)ccc21 [Example 191] | 94 | 87 | 95 | 92 | 94 | 88
6 | CCCn1cc(-c2ccccc2)n(-c2ccc3c(c2)c(N2CCOCC2)cc(=O)n3CC)c1=O [Example 265, 1-ethyl-4-(morpholin-4-yl)-6-(2-oxo-5-phenyl-3-propyl-2,3-dihydro-1H-imidazol-1-yl)quinolin-2(1H)-one] | 91 | 89 | 95 | 92 | 94 | 87
7 | CCn1c(=O)cc(N2CCOCC2)c2cc(N(C)C(=O)c3ccc(Cl)cc3)ccc21 [Example 250, 4-chloro-N-(1-ethyl-4-(morpholin-4-yl)-2-oxo-1,2-dihydroquinolin-6-yl)-N-methylbenzamide] | 74 | 88 | 91 | 92 | 91 | 88
8 | CCN1CCC(c2cc(=O)n(CC)c3ccc(C(=O)N(C)c4ccccc4)cc23)CC1 [Example 8, 1-ethyl-4-(1-ethylpiperidin-4-yl)-N-methyl-2-oxo-N-phenyl-1,2-dihydroquinoline-6-carboxamide] | 93 | 79 | 94 | 67 | 94 | 74
9 | CCn1c(=O)cc(N2CCOCC2)c2cc(-c3cnn(C)c3-c3ccccc3)ccc21 [Example 18, 1-Ethyl-6-(1-methyl-5-phenyl-1H-pyrazol-4-yl)-4-(morpholin-4-yl)quinolin-2(1H)-one] | 89 | 86 | 93 | 88 | 94 | 85
10 | CCn1c(=O)cc(C2CC2)c2cc(-n3c(-c4ccc(Cl)cc4)c[nH]c3=O)ccc21 [Example 271, 6-(5-(4-chlorophenyl)-2-oxo-2,3-dihydro-1H-imidazol-1-yl)-4-cyclopropyl-1-ethylquinolin-2(1H)-one] | 60 | 88 | 72 | 92 | 77 | 88
11 | CCn1c(=O)cc(N2CCOCC2)c2cc(-c3ccccc3-c3ccccc3)ccc21 [Example 258, 6-(biphenyl-2-yl)-1-ethyl-4-(morpholin-4-yl)quinolin-2(1H)-one] | 26 | 81 | 67 | 83 | 64 | 72
12 | CCn1c(=O)cc(N2CCOCC2)c2cc(-n3ccnc3-c3ccccc3)ccc21 [Example 255, 1-ethyl-4-(morpholin-4-yl)-6-(2-phenyl-1H-imidazol-1-yl)quinolin-2(1H)-one] | 79 | 89 | 92 | 90 | 94 | 87
13 | CCn1c(=O)cc(C2CC2)c2cc(-n3c(C)cc(=O)n3-c3ccccc3)ccc21 [Example 282b, 4-Cyclopropyl-1-ethyl-6-(5-methyl-3-oxo-2-phenyl-2,3-dihydro-1H-pyrazol-1-yl)quinolin-2(1H)-one] | 71 | 88 | 89 | 92 | 91 | 87
14 | Cc1ccc(N(C)C(=O)c2ccc3c(c2)c(C2CCN(C)CC2)cc(=O)n3C)cc1 [Example 235, N,1-dimethyl-N-(4-methylphenyl)-4-(1-methylpiperidin-4-yl)-2-oxo-1,2-dihydroquinoline-6-carboxamide] | 94 | 82 | 94 | 89 | 95 | 87
15 | CCCCn1cc(-c2ccccc2)n(-c2ccc3c(c2)c(N2CCOCC2)cc(=O)n3CC)c1=O [Example 264, 6-(3-butyl-2-oxo-5-phenyl-2,3-dihydro-1H-imidazol-1-yl)-1-ethyl-4-(morpholin-4-yl)quinolin-2(1H)-one] | 92 | 88 | 94 | 91 | 95 | 88
16 | CCn1c(=O)cc(N2CCOCC2)c2cc(-n3c(-c4ccccc4)cn(CCO)c3=O)ccc21 [Example 262, 1-ethyl-6-(3-(2-hydroxyethyl)-2-oxo-5-phenyl-2,3-dihydro-1H-imidazol-1-yl)-4-(morpholin-4-yl)quinolin-2(1H)-one] | 87 | 89 | 94 | 92 | 94 | 88
17 | CCn1c(=O)cc(N2CCOCC2)c2cc(-n3cc(C)nc3-c3ccccc3)ccc21 [Example 256, 1-ethyl-6-(4-methyl-2-phenyl-1H-imidazol-1-yl)-4-(morpholin-4-yl)quinolin-2(1H)-one] | 84 | 86 | 93 | 92 | 94 | 88

— patent publication US10987349B2, “Antitumor agent and bromodomain inhibitor” (FUJIFILM Corporation, priority 2016, dated 2021)
